In PubChem BioAssay (NCI):
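Compound exposure: 48 hours, 5 concentrations, 96-well plates. Definition used: TGI = concentration required for complete inhibition of growth.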

Columns and labels:
Assay in all cases: inhibition of tumour cell growth, NCI panel, 48 h
OVCAR-8 ovarian = tested on: OVCAR-8 ovarian
SK-OV-3 ovarian = tested on: SK-OV-3 ovarian
OVCAR-5 ovarian = tested on: OVCAR-5 ovarian
SNB-75 CNS = tested on: SNB-75 CNS
IGROV1 ovarian = tested on: IGROV1 ovarian
NCI-H23 lung = tested on: NCI-H23 lung
RPMI-8226 leukemia = tested on: RPMI-8226 leukemia
MCF7 breast = tested on: MCF7 breast
U251 CNS = tested on: U251 CNS
OVCAR-3 ovarian = tested on: OVCAR-3 ovarian
HCT-15 colon = tested on: HCT-15 colon
HT29 colon = tested on: HT29 colon
HOP-62 NSCLC = tested on: HOP-62 NSCLC
T-47D breast = tested on: T-47D breast
SK-MEL-28 melanoma = tested on: SK-MEL-28 melanoma
BT-549 breast = tested on: BT-549 breast
CCRF-CEM leukemia = tested on: CCRF-CEM leukemia
COLO 205 colon = tested on: COLO 205 colon
NCI-H226 lung = tested on: NCI-H226 lung
HCT-116 colon = tested on: HCT-116 colon
M14 melanoma = tested on: M14 melanoma
LOX IMVI melanoma = tested on: LOX IMVI melanoma
MDA-MB-231 breast = tested on: MDA-MB-231 breast
A498 renal = tested on: A498 renal
MDA-N = tested on: MDA-N
SNB-19 CNS = tested on: SNB-19 CNS
SK-MEL-2 melanoma = tested on: SK-MEL-2 melanoma
MDA-MB-435 = tested on: MDA-MB-435
ACHN renal = tested on: ACHN renal
KM12 colon = tested on: KM12 colon
MALME-3M melanoma = tested on: MALME-3M melanoma
UACC-62 melanoma = tested on: UACC-62 melanoma
CAKI-1 renal = tested on: CAKI-1 renal
RXF 393 renal = tested on: RXF 393 renal
PC-3 prostate = tested on: PC-3 prostate
EKVX NSCLC = tested on: EKVX NSCLC
DU-145 prostate = tested on: DU-145 prostate
HS 578T breast = tested on: HS 578T breast
786-0 renal = tested on: 786-0 renal
K-562 leukemia = tested on: K-562 leukemia
NCI-H522 lung = tested on: NCI-H522 lung
SN12C renal = tested on: SN12C renal
SK-MEL-5 melanoma = tested on: SK-MEL-5 melanoma
NCI/ADR-RES ovarian = tested on: NCI/ADR-RES ovarian
SR leukemia = tested on: SR leukemia
HCC-2998 colon = tested on: HCC-2998 colon
UO-31 renal = tested on: UO-31 renal
SW-620 colon = tested on: SW-620 colon
OVCAR-4 ovarian = tested on: OVCAR-4 ovarian
HL-60(TB) leukemia = tested on: HL-60(TB) leukemia
SF-268 CNS = tested on: SF-268 CNS
SF-295 CNS = tested on: SF-295 CNS
NCI-H460 lung = tested on: NCI-H460 lung
A549 NSCLC = tested on: A549 NSCLC
MOLT-4 leukemia = tested on: MOLT-4 leukemia
SF-539 CNS = tested on: SF-539 CNS
HOP-92 NSCLC = tested on: HOP-92 NSCLC
UACC-257 melanoma = tested on: UACC-257 melanoma
TK-10 renal = tested on: TK-10 renal

SMILES: CCOC(=O)c1ccc(C(=O)/C(C#N)=C2\CCCN2)n1C
- TGI (OVCAR-8 ovarian): > 100 µM
- TGI (SK-OV-3 ovarian): > 100 µM
- TGI (OVCAR-5 ovarian): > 100 µM
- TGI (SNB-75 CNS): > 100 µM
- TGI (IGROV1 ovarian): > 100 µM
- TGI (NCI-H23 lung): > 100 µM
- TGI (RPMI-8226 leukemia): > 100 µM
- TGI (MCF7 breast): > 100 µM
- TGI (U251 CNS): > 100 µM
- TGI (OVCAR-3 ovarian): > 100 µM
- TGI (HCT-15 colon): > 100 µM
- TGI (HT29 colon): > 100 µM
- TGI (HOP-62 NSCLC): > 100 µM
- TGI (T-47D breast): > 100 µM
- TGI (SK-MEL-28 melanoma): > 100 µM
- TGI (BT-549 breast): > 100 µM
- TGI (CCRF-CEM leukemia): > 100 µM
- TGI (COLO 205 colon): > 100 µM
- TGI (NCI-H226 lung): > 100 µM
- TGI (HCT-116 colon): > 100 µM
- TGI (M14 melanoma): > 100 µM
- TGI (LOX IMVI melanoma): > 100 µM
- TGI (MDA-MB-231 breast): > 100 µM
- TGI (A498 renal): > 100 µM
- TGI (MDA-N): > 100 µM
- TGI (SNB-19 CNS): > 100 µM
- TGI (SK-MEL-2 melanoma): > 100 µM
- TGI (MDA-MB-435): > 100 µM
- TGI (ACHN renal): > 100 µM
- TGI (KM12 colon): > 100 µM
- TGI (MALME-3M melanoma): > 100 µM
- TGI (UACC-62 melanoma): > 100 µM
- TGI (CAKI-1 renal): > 100 µM
- TGI (RXF 393 renal): > 100 µM
- TGI (PC-3 prostate): > 100 µM
- TGI (EKVX NSCLC): > 100 µM
- TGI (DU-145 prostate): > 100 µM
- TGI (HS 578T breast): > 100 µM
- TGI (786-0 renal): > 100 µM
- TGI (K-562 leukemia): > 100 µM
- TGI (NCI-H522 lung): > 100 µM
- TGI (SN12C renal): > 100 µM
- TGI (SK-MEL-5 melanoma): > 100 µM
- TGI (NCI/ADR-RES ovarian): > 100 µM
- TGI (SR leukemia): > 100 µM
- TGI (HCC-2998 colon): > 100 µM
- TGI (UO-31 renal): > 100 µM
- TGI (SW-620 colon): > 100 µM
- TGI (OVCAR-4 ovarian): > 100 µM
- TGI (HL-60(TB) leukemia): > 100 µM
- TGI (SF-268 CNS): > 100 µM
- TGI (SF-295 CNS): > 100 µM
- TGI (NCI-H460 lung): > 100 µM
- TGI (A549 NSCLC): > 100 µM
- TGI (MOLT-4 leukemia): > 100 µM

SMILES: CCOC(=O)c1cc(C)n(CN(CCO)Cn2nc(C(=O)OCC)cc2C)n1
- TGI (OVCAR-8 ovarian): 59.9 µM
- TGI (SK-OV-3 ovarian): > 100 µM
- TGI (OVCAR-5 ovarian): 54.1 µM
- TGI (IGROV1 ovarian): > 100 µM
- TGI (NCI-H23 lung): 53.8 µM
- TGI (RPMI-8226 leukemia): 40.3 µM
- TGI (MCF7 breast): 73.7 µM
- TGI (U251 CNS): > 100 µM
- TGI (SF-539 CNS): 33.6 µM
- TGI (OVCAR-3 ovarian): 70.1 µM
- TGI (HCT-15 colon): 48.1 µM
- TGI (HT29 colon): 47.4 µM
- TGI (HOP-62 NSCLC): 62.9 µM
- TGI (T-47D breast): 72.3 µM
- TGI (SK-MEL-28 melanoma): > 100 µM
- TGI (BT-549 breast): 68.7 µM
- TGI (CCRF-CEM leukemia): 42.2 µM
- TGI (HOP-92 NSCLC): > 100 µM
- TGI (COLO 205 colon): 41.9 µM
- TGI (HCT-116 colon): 37.7 µM
- TGI (M14 melanoma): 44 µM
- TGI (LOX IMVI melanoma): 70.1 µM
- TGI (MDA-MB-231 breast): 91.2 µM
- TGI (A498 renal): > 100 µM
- TGI (MDA-N): > 100 µM
- TGI (SNB-19 CNS): > 100 µM
- TGI (SK-MEL-2 melanoma): 36.8 µM
- TGI (MDA-MB-435): > 100 µM
- TGI (ACHN renal): 55.6 µM
- TGI (KM12 colon): > 100 µM
- TGI (MALME-3M melanoma): 96.1 µM
- TGI (UACC-257 melanoma): > 100 µM
- TGI (UACC-62 melanoma): 38.2 µM
- TGI (CAKI-1 renal): > 100 µM
- TGI (RXF 393 renal): 43.9 µM
- TGI (PC-3 prostate): > 100 µM
- TGI (EKVX NSCLC): > 100 µM
- TGI (DU-145 prostate): 71.5 µM
- TGI (HS 578T breast): > 100 µM
- TGI (786-0 renal): 49.7 µM
- TGI (K-562 leukemia): 78.3 µM
- TGI (NCI-H522 lung): 52.1 µM
- TGI (SN12C renal): 79.2 µM
- TGI (SK-MEL-5 melanoma): > 100 µM
- TGI (NCI/ADR-RES ovarian): 42.5 µM
- TGI (TK-10 renal): > 100 µM
- TGI (SR leukemia): 72.7 µM
- TGI (HCC-2998 colon): 27.9 µM
- TGI (UO-31 renal): 53.2 µM
- TGI (SW-620 colon): > 100 µM
- TGI (OVCAR-4 ovarian): > 100 µM
- TGI (HL-60(TB) leukemia): > 100 µM
- TGI (SF-268 CNS): > 100 µM
- TGI (SF-295 CNS): > 100 µM
- TGI (NCI-H460 lung): > 100 µM
- TGI (A549 NSCLC): > 100 µM
- TGI (MOLT-4 leukemia): > 100 µM
